Laboratory results taken from ChEMBL document CHEMBL3797178, “Synthesis, antimycobacterial and antibacterial activity of 1-(6-amino-3,5-difluoropyridin-2-yl)fluoroquinolone derivatives containing an oxime functional moiety” (2016).
Values after ≈ are worked out from the molar mass of the structure shown.

Columns and labels:
Assay type in all cases: functional
[1] = system: Mycobacterium tuberculosis; test: Antimycobacterial activity against Mycobacterium tuberculosis H37Rv ATCC 27294 after 3 days by microplate Alamar Blue assay; conditions: H37Rv ATCC 27294, 72 h
[2] = system: Escherichia coli; test: Antibacterial activity against Escherichia coli ATCC 25922 after 18 to 24 hrs by CLSI M100-S11 method
[3] = system: Escherichia coli; test: Antibacterial activity against extended-spectrum beta-lactamase-producing Escherichia coli 14-1 after 18 to 24 hrs by CLSI M100-S11 method
[4] = system: Escherichia coli; test: Antibacterial activity against extended-spectrum beta-lactamase-producing Escherichia coli 14-2 after 18 to 24 hrs by CLSI M100-S11 method
[5] = system: Escherichia coli; test: Antibacterial activity against Escherichia coli 14-1 after 18 to 24 hrs by CLSI M100-S11 method
[6] = system: Escherichia coli; test: Antibacterial activity against Escherichia coli 14-2 after 18 to 24 hrs by CLSI M100-S11 method
[7] = system: Klebsiella pneumoniae; test: Antibacterial activity against extended-spectrum beta-lactamase-producing Klebsiella pneumoniae 14-17 after 18 to 24 hrs by CLSI M100-S11 method
[8] = system: Klebsiella pneumoniae; test: Antibacterial activity against extended-spectrum beta-lactamase-producing Klebsiella pneumoniae 14-18 after 18 to 24 hrs by CLSI M100-S11 method
[9] = system: Klebsiella pneumoniae; test: Antibacterial activity against extended-spectrum beta-lactamase-producing Klebsiella pneumoniae 14-19 after 18 to 24 hrs by CLSI M100-S11 method
[10] = system: Klebsiella pneumoniae; test: Antibacterial activity against Klebsiella pneumoniae 14-1 after 18 to 24 hrs by CLSI M100-S11 method
[11] = system: Klebsiella pneumoniae; test: Antibacterial activity against Klebsiella pneumoniae 14-2 after 18 to 24 hrs by CLSI M100-S11 method
[12] = system: Klebsiella pneumoniae; test: Antibacterial activity against Klebsiella pneumoniae 14-3 after 18 to 24 hrs by CLSI M100-S11 method
[13] = system: Klebsiella pneumoniae; test: Antibacterial activity against Klebsiella pneumoniae 14-4 after 18 to 24 hrs by CLSI M100-S11 method
[14] = system: Pseudomonas aeruginosa; test: Antibacterial activity against Pseudomonas aeruginosa ATCC 27853 after 18 to 24 hrs by CLSI M100-S11 method
[15] = system: Pseudomonas aeruginosa; test: Antibacterial activity against Pseudomonas aeruginosa 14-9 after 18 to 24 hrs by CLSI M100-S11 method
[16] = system: Pseudomonas aeruginosa; test: Antibacterial activity against Pseudomonas aeruginosa 14-14 after 18 to 24 hrs by CLSI M100-S11 method
[17] = system: Pseudomonas aeruginosa; test: Antibacterial activity against Pseudomonas aeruginosa 14-15 after 18 to 24 hrs by CLSI M100-S11 method
[18] = system: Pseudomonas aeruginosa; test: Antibacterial activity against Pseudomonas aeruginosa 14-16 after 18 to 24 hrs by CLSI M100-S11 method
[19] = system: Pseudomonas aeruginosa; test: Antibacterial activity against Pseudomonas aeruginosa 14-19 after 18 to 24 hrs by CLSI M100-S11 method
[20] = system: Staphylococcus aureus; test: Antibacterial activity against Staphylococcus aureus CMCC 26003 after 18 to 24 hrs by CLSI M100-S11 method
[21] = system: Staphylococcus aureus; test: Antibacterial activity against methicillin-sensitive Staphylococcus aureus 14-2 after 18 to 24 hrs by CLSI M100-S11 method
[22] = system: Staphylococcus aureus; test: Antibacterial activity against methicillin-sensitive Staphylococcus aureus 14-3 after 18 to 24 hrs by CLSI M100-S11 method
[23] = system: Staphylococcus aureus; test: Antibacterial activity against methicillin-sensitive Staphylococcus aureus 14-4 after 18 to 24 hrs by CLSI M100-S11 method
[24] = system: Staphylococcus aureus; test: Antibacterial activity against methicillin-resistant Staphylococcus aureus 14-4 after 18 to 24 hrs by CLSI M100-S11 method
[25] = system: Staphylococcus aureus; test: Antibacterial activity against methicillin-resistant Staphylococcus aureus 14-5 after 18 to 24 hrs by CLSI M100-S11 method
[26] = system: Staphylococcus epidermidis; test: Antibacterial activity against methicillin-sensitive Staphylococcus epidermidis 14-2 after 18 to 24 hrs by CLSI M100-S11 method
[27] = system: Staphylococcus epidermidis; test: Antibacterial activity against methicillin-sensitive Staphylococcus epidermidis 14-4 after 18 to 24 hrs by CLSI M100-S11 method
[28] = system: Staphylococcus epidermidis; test: Antibacterial activity against methicillin-sensitive Staphylococcus epidermidis 14-6 after 18 to 24 hrs by CLSI M100-S11 method
[29] = system: Staphylococcus epidermidis; test: Antibacterial activity against methicillin-resistant Staphylococcus epidermidis 14-22 after 18 to 24 hrs by CLSI M100-S11 method
[30] = system: Staphylococcus epidermidis; test: Antibacterial activity against methicillin-resistant Staphylococcus epidermidis 14-37 after 18 to 24 hrs by CLSI M100-S11 method
[31] = system: Streptococcus pneumoniae; test: Antibacterial activity against Streptococcus pneumoniae ATCC 19615 after 18 to 24 hrs by CLSI M100-S11 method
[32] = system: Enterococcus faecium; test: Antibacterial activity against Enterococcus faecium 14-1 after 18 to 24 hrs by CLSI M100-S11 method
[33] = system: Enterococcus faecium; test: Antibacterial activity against Enterococcus faecium 14-2 after 18 to 24 hrs by CLSI M100-S11 method
[34] = system: Enterococcus faecalis; test: Antibacterial activity against Enterococcus faecalis 14-1 after 18 to 24 hrs by CLSI M100-S11 method
[35] = system: Enterococcus faecalis; test: Antibacterial activity against Enterococcus faecalis 14-2 after 18 to 24 hrs by CLSI M100-S11 method
[36] = system: Enterococcus faecalis; test: Antibacterial activity against Enterococcus faecalis 14-3 after 18 to 24 hrs by CLSI M100-S11 method

Compound	MIC [1]	MIC [2]	MIC [3]	MIC [4]	MIC [5]	MIC [6]	MIC [7]	MIC [8]	MIC [9]	MIC [10]	MIC [11]	MIC [12]	MIC [13]	MIC [14]	MIC [15]	MIC [16]	MIC [17]	MIC [18]	MIC [19]	MIC [20]	other results
CO/N=C1\CCN(c2nc3c(cc2F)c(=O)c(C(=O)O)cn3-c2nc(N)c(F)cc2F)CC1O (configuration not stated)	30.7 µg/mL (≈ 64.3 µM)	64 µg/mL (≈ 134 µM)	64 µg/mL (≈ 134 µM)	> 128 µg/mL	> 128 µg/mL	> 128 µg/mL	> 128 µg/mL	> 128 µg/mL	> 128 µg/mL	> 128 µg/mL	> 128 µg/mL	> 128 µg/mL	> 128 µg/mL	128 µg/mL (≈ 268 µM)	128 µg/mL (≈ 268 µM)	128 µg/mL (≈ 268 µM)	128 µg/mL (≈ 268 µM)	128 µg/mL (≈ 268 µM)	128 µg/mL (≈ 268 µM)	2 µg/mL (≈ 4.18 µM)	MIC [21]: 2 µg/mL (≈ 4.18 µM); MIC [22]: 4 µg/mL (≈ 8.36 µM); MIC [23]: 4 µg/mL (≈ 8.36 µM); MIC [24]: > 128 µg/mL; MIC [25]: 128 µg/mL (≈ 268 µM); MIC [26]: > 128 µg/mL; MIC [27]: > 128 µg/mL; MIC [28]: > 128 µg/mL; MIC [29]: > 128 µg/mL; MIC [30]: > 128 µg/mL; MIC [31]: 64 µg/mL (≈ 134 µM); MIC [32]: > 128 µg/mL; MIC [33]: 64 µg/mL (≈ 134 µM); MIC [34]: > 128 µg/mL; MIC [35]: > 128 µg/mL; MIC [36]: > 128 µg/mL
Nc1nc(-n2cc(C(=O)O)c(=O)c3cc(F)c(N4CC/C(=N\OCc5ccccc5)C(N)C4)nc32)c(F)cc1F (configuration not stated)	> 32 µg/mL	64 µg/mL (≈ 116 µM)	128 µg/mL (≈ 231 µM)	> 128 µg/mL	> 128 µg/mL	> 128 µg/mL	> 128 µg/mL	> 128 µg/mL	> 128 µg/mL	> 128 µg/mL	> 128 µg/mL	> 128 µg/mL	> 128 µg/mL	128 µg/mL (≈ 231 µM)	128 µg/mL (≈ 231 µM)	128 µg/mL (≈ 231 µM)	128 µg/mL (≈ 231 µM)	128 µg/mL (≈ 231 µM)	128 µg/mL (≈ 231 µM)	8 µg/mL (≈ 14.5 µM)	MIC [21]: 8 µg/mL (≈ 14.5 µM); MIC [22]: 4 µg/mL (≈ 7.23 µM); MIC [23]: 8 µg/mL (≈ 14.5 µM); MIC [24]: > 128 µg/mL; MIC [25]: > 128 µg/mL; MIC [26]: > 128 µg/mL; MIC [27]: > 128 µg/mL; MIC [28]: > 128 µg/mL; MIC [29]: > 128 µg/mL; MIC [30]: > 128 µg/mL; MIC [31]: 64 µg/mL (≈ 116 µM); MIC [32]: > 128 µg/mL; MIC [33]: 64 µg/mL (≈ 116 µM); MIC [34]: 128 µg/mL (≈ 231 µM); MIC [35]: 128 µg/mL (≈ 231 µM); MIC [36]: > 128 µg/mL
Nc1nc(-n2cc(C(=O)O)c(=O)c3cc(F)c(N4CC/C(=N\OCc5ccccc5)C(O)C4)nc32)c(F)cc1F (configuration not stated)	> 32 µg/mL	16 µg/mL (≈ 28.9 µM)	128 µg/mL (≈ 231 µM)	> 128 µg/mL	> 128 µg/mL	> 128 µg/mL	> 128 µg/mL	> 128 µg/mL	> 128 µg/mL	> 128 µg/mL	> 128 µg/mL	64 µg/mL (≈ 115 µM)	> 128 µg/mL	128 µg/mL (≈ 231 µM)	128 µg/mL (≈ 231 µM)	128 µg/mL (≈ 231 µM)	128 µg/mL (≈ 231 µM)	128 µg/mL (≈ 231 µM)	128 µg/mL (≈ 231 µM)	2 µg/mL (≈ 3.61 µM)	MIC [21]: 4 µg/mL (≈ 7.21 µM); MIC [22]: 4 µg/mL (≈ 7.21 µM); MIC [23]: 4 µg/mL (≈ 7.21 µM); MIC [24]: > 128 µg/mL; MIC [25]: > 128 µg/mL; MIC [26]: > 128 µg/mL; MIC [27]: > 128 µg/mL; MIC [28]: > 128 µg/mL; MIC [29]: > 128 µg/mL; MIC [30]: > 128 µg/mL; MIC [31]: 32 µg/mL (≈ 57.7 µM); MIC [32]: > 128 µg/mL; MIC [33]: 32 µg/mL (≈ 57.7 µM); MIC [34]: > 128 µg/mL; MIC [35]: > 128 µg/mL; MIC [36]: > 128 µg/mL
CO/N=C1\CCN(c2nc3c(cc2F)c(=O)c(C(=O)O)cn3-c2nc(N)c(F)cc2F)CC1N (configuration not stated)	> 32 µg/mL	16 µg/mL (≈ 33.5 µM)	> 128 µg/mL	> 128 µg/mL	> 128 µg/mL	> 128 µg/mL	> 128 µg/mL	> 128 µg/mL	> 128 µg/mL	> 128 µg/mL	> 128 µg/mL	> 128 µg/mL	> 128 µg/mL	128 µg/mL (≈ 268 µM)	128 µg/mL (≈ 268 µM)	128 µg/mL (≈ 268 µM)	128 µg/mL (≈ 268 µM)	128 µg/mL (≈ 268 µM)	128 µg/mL (≈ 268 µM)	8 µg/mL (≈ 16.8 µM)	MIC [21]: 8 µg/mL (≈ 16.8 µM); MIC [22]: 8 µg/mL (≈ 16.8 µM); MIC [23]: 16 µg/mL (≈ 33.5 µM); MIC [24]: > 128 µg/mL; MIC [25]: > 128 µg/mL; MIC [26]: > 128 µg/mL; MIC [27]: > 128 µg/mL; MIC [28]: > 128 µg/mL; MIC [29]: > 128 µg/mL; MIC [30]: > 128 µg/mL; MIC [31]: 64 µg/mL (≈ 134 µM); MIC [32]: > 128 µg/mL; MIC [33]: 64 µg/mL (≈ 134 µM); MIC [34]: > 128 µg/mL; MIC [35]: > 128 µg/mL; MIC [36]: > 128 µg/mL
O=C(O)c1cn(C2CC2)c2cc(N3CCNCC3)c(F)cc2c1=O [CIPROFLOXACIN]	0.25 µg/mL (≈ 0.754 µM)	–	–	–	–	–	–	–	–	–	–	–	–	–	–	–	–	–	–	–	–
NNC(=O)c1ccncc1 [ISONIAZID]	0.05 µg/mL (≈ 0.365 µM)	–	–	–	–	–	–	–	–	–	–	–	–	–	–	–	–	–	–	–	–
CO[C@H]1/C=C/O[C@@]2(C)Oc3c(C)c(O)c4c(O)c(c(/C=N/N5CCN(C)CC5)c(O)c4c3C2=O)NC(=O)/C(C)=C\C=C\[C@H](C)[C@H](O)[C@@H](C)[C@@H](O)[C@@H](C)[C@H](OC(C)=O)[C@@H]1C [RIFAMPIN]	0.05 µg/mL (≈ 0.0608 µM)	–	–	–	–	–	–	–	–	–	–	–	–	–	–	–	–	–	–	–	–
